Experimental data published in US10918610B2, “Compounds and methods of promoting myelination” (Case Western Reserve University, priority 2017, dated 2021).

Legend:
[1] = test system: EpiSC-derived OPCs; assay: Oligodendrocyte formation and myelin sheaths on electrospun microfibers; assay type: cell-based, mouse; conditions: 100 nM, versus untreated OPCs; microscopic images
Method: A 12-well plate containing Mimetex aligned scaffold (microfiber plate, AMSBIO, AMS.TECL-006-1X, Electrospun poly-L-lactide Scaffold, […] fibre diameter cell crown inserts) was prepared as previously described. Briefly, inserts were sterilized with 70% ethanol and washed with PBS before being coated with polyornithine and laminin. After laminin coating, 100,000 cells/mL of EpiSC-derived OPCs were plated in differentiation medium. After 24 h the media was replaced with fresh media containing small molecule treatments. […] Plates were fixed with 4% PFA, permeabilized with 0.1% Triton X-100, and blocked with 10% donkey serum (v/v) in PBS for 60 min. Plates were stained for MBP (Abcam, ab7349; 1:100) and DAPI staining (Sigma; 5 μg/ml). After staining, the inserts were moved into new 12-well plate and covered with 2 mL of PBS before imaging in Operetta high content Imaging and analysis system. Plates were imaged on the Operetta High Content Imaging and Analysis system (PerkinElmer) and a set of 8 fields captured from each well resulting in an average of 45,000 cells being scored per well. Analysis (PerkinElmer Harmony and Columbus software) identified intact nuclei stained by DAPI and calculated the MBP signal intensity per cell per well. Microfiber insert tracking images were taken using a Leica DMi8 with a 20× Dry/NA 0.40 objective. […]

[2] = test system: EpiSC-derived OPCs; assay: Formation of differentiated MBP+ oligodendrocytes from OPCs in vitro (high-content imaging); assay type: cell-based, mouse
Excerpt: EpiSC-derived OPCs were obtained using in vitro differentiation protocols and culture conditions described previously. To ensure uniformity throughout all in vitro screening experiments, EpiSC-derived OPCs were sorted to purity by fluorescence activated cell sorting at passage five with conjugated CD 140a-APC (eBioscience, 17-1401; 1:80) and NG2-AF488 (Millipore, AB5320A4; 1:100) antibodies. Sorted batches of OPCs were expanded and frozen down in aliquots. OPCs were thawed into growth conditions for one passage before use in further assays. Cultures were regularly tested and shown to be mycoplasma free.
EpiSC-derived OPCs were grown and expanded in poly-ornithine (PO) and laminin-coated flasks with growth medium (DMEM/F12 supplemented with N2-MAX (R&D Systems), B-27 (ThermoFisher), GlutaMax (Gibco), FGF2 ([…], R&D systems, 233-FB-025) and PDGF-AA ([…], R&D systems, 233-AA-050) before harvesting for plating. The cells were seeded onto poly-D-lysine 96-well CellCarrier plates (PerkinElmer) coated with laminin (Sigma, L2020; 15 μg/ml) using multi-channel pipet. For the experiment, 800,000 cells/mL stock in differentiation medium (DMEM/F12 supplemented with N2-MAX and B-27) was prepared and stored on ice for 2 h. […]
Plates were imaged on the Operetta High Content Imaging and Analysis system (PerkinElmer) and a set of 6 fields captured from each well resulting in an average of 1200 cells being scored per well. […] Each traced nucleus region was then expanded by 50% and cross-referenced with the […] (MBP) stain to identify oligodendrocyte nuclei, and from this the percentage of oligodendrocytes was calculated. In some experiments, the total process length of MBP+ oligodendrocytes was calculated as previously described.
OPCs were generated from the EpiSC5 cell line. […] To ensure uniformity throughout all in vitro screening experiments, EpiSC-derived OPCs were sorted to purity by fluorescence activated cell sorting at passage five with conjugated CD 140a-APC (eBioscience, 17-1401; 1:80) and NG2-AF488 (Millipore, AB5320A4; 1:100) antibodies. […]

## CCN(C/C=C\c1ccc(C2CCCCC2)c(Cl)c1)C1CCCCC1 [Cis-N-cyclohexyl-N-ethyl-3-(3-chloro-4-cyclohexylphenyl)prop-2-enylamine]
[1]
  amount of myelin sheaths formed on electrospun poly-L-lactide scaffold microfibers: significant increase in the amount of myelin sheaths
[2]; 63 nM, 125 nM, 250 nM and 500 nM versus ketoconazole 2.5 μM
  number of differentiated MBP+ oligodendrocytes from OPCs compared with ketoconazole: at higher rates than ketoconazole
[2]; 0.03, 0.1, 0.3 and 1 um, 40,000 cells per well, 3 days
  formation of MBP+ oligodendrocytes in culture (FIG. 1A): enhances formation of MBP+ oligodendrocytes
[2]; wider range of concentrations (2 nM to 500 nM), 50,000 cells per well, N2B27 media, no growth factors
  formation of MBP+ oligodendrocytes in in vitro cultures of OPCs (FIG. 4): enhances formation of MBP+ oligodendrocytes
